For 16 molecules, DC50 results are on record in patent publication US20220380368A1, “SPIROCYCLIC ANDROGEN RECEPTOR PROTEIN DEGRADERS” (THE REGENTS OF THE UNIVERSITY OF MICHIGAN, priority 2019, published 2022).

Molecules are shown by their SMILES.

In this assay the target is T1, AR protein (Homo sapiens, UniProt P10275).
T1 construct: endogenous in cells; host or cells: VCaP
T1 sequence (P10275 1-920): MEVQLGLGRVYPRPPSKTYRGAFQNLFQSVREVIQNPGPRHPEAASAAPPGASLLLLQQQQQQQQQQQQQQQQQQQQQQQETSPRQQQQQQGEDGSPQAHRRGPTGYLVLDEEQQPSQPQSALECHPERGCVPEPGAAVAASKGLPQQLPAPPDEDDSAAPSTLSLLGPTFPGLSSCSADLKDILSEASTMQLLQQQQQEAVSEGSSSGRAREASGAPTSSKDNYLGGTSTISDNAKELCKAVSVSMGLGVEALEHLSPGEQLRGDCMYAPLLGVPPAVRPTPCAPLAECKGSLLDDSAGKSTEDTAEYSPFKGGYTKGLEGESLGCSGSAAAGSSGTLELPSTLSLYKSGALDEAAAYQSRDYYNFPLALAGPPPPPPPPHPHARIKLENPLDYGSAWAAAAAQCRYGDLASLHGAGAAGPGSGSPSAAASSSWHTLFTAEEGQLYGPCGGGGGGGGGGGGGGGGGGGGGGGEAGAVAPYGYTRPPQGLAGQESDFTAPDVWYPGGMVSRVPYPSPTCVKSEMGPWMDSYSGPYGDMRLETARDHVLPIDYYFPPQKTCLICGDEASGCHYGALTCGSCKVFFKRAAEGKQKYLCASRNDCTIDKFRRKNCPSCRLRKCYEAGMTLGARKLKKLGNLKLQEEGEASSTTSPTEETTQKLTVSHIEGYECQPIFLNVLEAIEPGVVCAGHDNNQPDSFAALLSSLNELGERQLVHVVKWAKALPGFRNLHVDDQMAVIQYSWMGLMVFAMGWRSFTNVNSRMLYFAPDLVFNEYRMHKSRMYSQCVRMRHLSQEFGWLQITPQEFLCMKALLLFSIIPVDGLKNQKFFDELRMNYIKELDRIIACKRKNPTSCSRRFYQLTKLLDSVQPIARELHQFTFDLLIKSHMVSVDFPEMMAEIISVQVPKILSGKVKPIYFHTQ
Briefly: Western blotting analysis of AR protein levels in VCaP cells, band quantification, DC50/DC90. In kind it is cell-based. Conditions: VCaP cells, Table 6; read-out: VCaP DC50. The protocol:
The appropriate cell line, e.g., prostate cancer LNCaP, Vcap, or 22RV1 cell line, was treated with Compounds of the Disclosure as indicated. The treated cells were lysed with RIPA buffer. […] GAPDH was used as a loading control.
Bands were quantified with ImageJ software. The relative numbers of each band obtained from normalization with its corresponding GAPDH level were compared with Prism 8 software. The DC50 values were produced from Prism 8, and the DC90 values were calculated with an equation=Bottom+(Top−Bottom)/(1+10^((Log EC50−X)*HillSlope) based on DC50 and Hillslope values.

Regarding `C[C@H]1CC2(CCN(c3ccc(C(=O)N4CCN(C5CCN(c6ccc7c(c6)C(=O)N(C6CCC(=O)NC6=O)C7=O)CC5)CC4)cc3F)CC2)CN1c1ccc(C#N)c(Cl)c1` (stereo partly drawn) [Cpd. No. 518, 2-chloro-4-((3S)-8-(4-(4-(1-(2-(2,6-dioxopiperidin-3-yl)-1,3-dioxoisoindolin-5-yl)piperidin-4-yl)piperazine-1-carbonyl)-2-fluorophenyl)-3-methyl-2,8-diazaspiro[4.5]decan-2-yl)benzonitrile], the DC50 was in the range of 10 to 100 nM. The figure for `C[C@H]1CC2(CCN(c3ccc(C(=O)N4CCN(C5CCN(c6ccc7c(c6)C(=O)N(C6CCC(=O)NC6=O)C7=O)CC5)CC4)cc3F)CC2)CN1c1ccc(C#N)c(Cl)c1` (stereo partly drawn) [Cpd. No. 519, 2-chloro-4-((3S)-8-(4-(4-(1-(2-(2,6-dioxopiperidin-3-yl)-1,3-dioxoisoindolin-5-yl)piperidin-4-yl)piperazine-1-carbonyl)-2-fluorophenyl)-3-methyl-2,8-diazaspiro[4.5]decan-2-yl)benzonitrile] is < 1 nM; for `C[C@H]1CC2(CCN(c3ccc(C(=O)N4CCN(C5CCN(c6ccc7c(c6)C(=O)N(C6CCC(=O)NC6=O)C7=O)CC5)CC4)cc3F)CC2)CN1c1ccc(C#N)c(Cl)c1` (stereo partly drawn) [Cpd. No. 520, 2-chloro-4-((3S)-8-(4-(4-(1-(2-(2,6-dioxopiperidin-3-yl)-1,3-dioxoisoindolin-5-yl)piperidin-4-yl)piperazine-1-carbonyl)-2-fluorophenyl)-3-methyl-2,8-diazaspiro[4.5]decan-2-yl)benzonitrile] it is < 1 nM; for `C[C@H]1CC2(CCN(c3ncc(C(=O)N4CCN(C5CN(c6cc7c(cc6F)C(=O)N(C6CCC(=O)NC6=O)C7=O)C5)CC4)cn3)CC2)CN1c1ccc(C#N)c(Cl)c1` (stereo partly drawn) [Cpd. No. 523, 2-chloro-4-((3S)-8-(5-(4-(1-(2-(2,6-dioxopiperidin-3-yl)-6-fluoro-1,3-dioxoisoindolin-5-yl)azetidin-3-yl)piperazine-1-carbonyl)pyrimidin-2-yl)-3-methyl-2,8-diazaspiro[4.5]decan-2-yl)benzonitrile] it is < 1 nM.

For the molecule `C[C@H]1CC2(CCN(c3ncc(C(=O)N4CCN(C5CCN(c6cc7c(cc6F)C(=O)N(C6CCC(=O)NC6=O)C7=O)CC5)CC4)cn3)CC2)CN1c1ccc(C#N)c(Cl)c1` (stereo partly drawn) [Cpd. No. 524, 2-chloro-4-((3S)-8-(5-(4-(1-(2-(2,6-dioxopiperidin-3-yl)-6-fluoro-1,3-dioxoisoindolin-5-yl)piperidin-4-yl)piperazine-1-carbonyl)pyrimidin-2-yl)-3-methyl-2,8-diazaspiro[4.5]decan-2-yl)benzonitrile], the DC50 was < 1 nM.

On to `C[C@H]1CC2(CCN(c3ncc(C(=O)N4CCC(N5CCN(c6cc7c(cc6F)C(=O)N(C6CCC(=O)NC6=O)C7=O)CC5)CC4)cn3)CC2)CN1c1ccc(C#N)c(Cl)c1` (stereo partly drawn) [Cpd. No. 525, 2-chloro-4-((3S)-8-(5-(4-(4-(2-(2,6-dioxopiperidin-3-yl)-6-fluoro-1,3-dioxoisoindolin-5-yl)piperazin-1-yl)piperidine-1-carbonyl)pyrimidin-2-yl)-3-methyl-2,8-diazaspiro[4.5]decan-2-yl)benzonitrile], for which the DC50 was < 1 nM. The figure for `C[C@H]1CC2(CCN(c3ncc(C(=O)N4CCC(CN5Cc6cc7c(cc6C5)C(=O)N(C5CCC(=O)NC5=O)C7=O)CC4)cn3)CC2)CN1c1ccc(C#N)c(Cl)c1` (stereo partly drawn) [Cpd. No. 526, 2-chloro-4-((3S)-8-(5-(4-((6-(2,6-dioxopiperidin-3-yl)-5,7-dioxo-3,5,6,7-tetrahydropyrrolo[3,4-f]isoindol-2(1H)-yl)methyl)piperidine-1-carbonyl)pyrimidin-2-yl)-3-methyl-2,8-diazaspiro[4.5]decan-2-yl)benzonitrile] is < 1 nM; for `C[C@H]1CC2(CCN(c3ccc(C(=O)N4CCC(CN5Cc6cc7c(cc6C5)C(=O)N(C5CCC(=O)NC5=O)C7=O)CC4)cc3F)CC2)CN1c1ccc(C#N)c(Cl)c1` (stereo partly drawn) [Cpd. No. 527, 2-chloro-4-((3S)-8-(4-(4-((6-(2,6-dioxopiperidin-3-yl)-5,7-dioxo-3,5,6,7-tetrahydropyrrolo[3,4-f]isoindol-2(1H)-yl)methyl)piperidine-1-carbonyl)-2-fluorophenyl)-3-methyl-2,8-diazaspiro[4.5]decan-2-yl)benzonitrile] it is < 1 nM; for `C[C@H]1CC2(CCN(c3ccc(C(=O)N4CCN(C5CN(c6cc7c(cc6F)C(=O)N(C6CCC(=O)NC6=O)C7=O)C5)CC4)c(F)c3)CC2)CN1c1ccc(C#N)c(Cl)c1` (stereo partly drawn) [Cpd. No. 530, 2-chloro-4-((3S)-8-(4-(4-(1-(2-(2,6-dioxopiperidin-3-yl)-6-fluoro-1,3-dioxoisoindolin-5-yl)azetidin-3-yl)piperazine-1-carbonyl)-3-fluorophenyl)-3-methyl-2,8-diazaspiro[4.5]decan-2-yl)benzonitrile] it is < 1 nM. The figure for `C[C@H]1CC2(CCN(c3ccc(C(=O)N4CCN(CC5CN(c6cc7c(cc6F)C(=O)N(C6CCC(=O)NC6=O)C7=O)C5)CC4)c(F)c3)CC2)CN1c1ccc(C#N)c(Cl)c1` (stereo partly drawn) [Cpd. No. 531, 2-chloro-4-((3S)-8-(4-(4-((1-(2-(2,6-dioxopiperidin-3-yl)-6-fluoro-1,3-dioxoisoindolin-5-yl)azetidin-3-yl)methyl)piperazine-1-carbonyl)-3-fluorophenyl)-3-methyl-2,8-diazaspiro[4.5]decan-2-yl)benzonitrile] is 1 to 10 nM; for `C[C@H]1CC2(CCN(c3ccc(C(=O)N4CCN(C5CN(c6cc7c(cc6F)C(=O)N(C6CCC(=O)NC6=O)C7=O)C5)CC4)cc3F)CC2)CN1c1ccc(C#N)c(Cl)c1` (stereo partly drawn) [Cpd. No. 532, 2-chloro-4-((3S)-8-(4-(4-(1-(2-(2,6-dioxopiperidin-3-yl)-6-fluoro-1,3-dioxoisoindolin-5-yl)azetidin-3-yl)piperazine-1-carbonyl)-2-fluorophenyl)-3-methyl-2,8-diazaspiro[4.5]decan-2-yl)benzonitrile] it is < 1 nM.

For `C[C@H]1CC2(CCN(c3ccc(C(=O)N4CCN(CC5CN(c6cc7c(cc6F)C(=O)N(C6CCC(=O)NC6=O)C7=O)C5)CC4)cc3F)CC2)CN1c1ccc(C#N)c(Cl)c1` (stereo partly drawn) [Cpd. No. 533, 2-chloro-4-((3S)-8-(4-(4-((1-(2-(2,6-dioxopiperidin-3-yl)-6-fluoro-1,3-dioxoisoindolin-5-yl)azetidin-3-yl)methyl)piperazine-1-carbonyl)-2-fluorophenyl)-3-methyl-2,8-diazaspiro[4.5]decan-2-yl)benzonitrile], the DC50 is < 1 nM. As for `C[C@H]1CC2(CCN(c3ccc(C(=O)N4CCC(CN5Cc6cc7c(cc6C5)C(=O)N(C5CCC(=O)NC5=O)C7=O)CC4)c(F)c3)CC2)CN1c1ccc(C#N)c(Cl)c1` (stereo partly drawn) [Cpd. No. 534, 2-chloro-4-((3S)-8-(4-(4-((6-(2,6-dioxopiperidin-3-yl)-5,7-dioxo-3,5,6,7-tetrahydropyrrolo[3,4-f]isoindol-2(1H)-yl)methyl)piperidine-1-carbonyl)-3-fluorophenyl)-3-methyl-2,8-diazaspiro[4.5]decan-2-yl)benzonitrile], the DC50 was < 1 nM. For the molecule `C[C@H]1CC2(CCN(c3ccc(C(=O)N4CCN(CC5CN(c6ccc7c(c6)C(=O)N(C6CCC(=O)NC6=O)C7=O)C5)CC4)cc3)CC2)CN1c1ccc(C#N)c(Cl)c1` (stereo partly drawn) [Cpd. No. 535, 2-chloro-4-((3S)-8-(4-(4-((1-(2-(2,6-dioxopiperidin-3-yl)-1,3-dioxoisoindolin-5-yl)azetidin-3-yl)methyl)piperazine-1-carbonyl)phenyl)-3-methyl-2,8-diazaspiro[4.5]decan-2-yl)benzonitrile], the DC50 was < 1 nM. The figure for `C[C@H]1CC2(CCN(c3ccc(C(=O)N4CCN(C5CN(c6cc7c(cc6F)C(=O)N(C6CCC(=O)NC6=O)C7=O)C5)CC4)nn3)CC2)CN1c1ccc(C#N)c(Cl)c1` (stereo partly drawn) [Cpd. No. 536, 2-chloro-4-((3S)-8-(6-(4-(1-(2-(2,6-dioxopiperidin-3-yl)-6-fluoro-1,3-dioxoisoindolin-5-yl)azetidin-3-yl)piperazine-1-carbonyl)pyridazin-3-yl)-3-methyl-2,8-diazaspiro[4.5]decan-2-yl)benzonitrile] is < 1 nM.

For `C[C@H]1CC2(CCN(c3ccc(C(=O)N4CC(N5CCN(c6cc7c(cc6F)C(=O)N(C6CCC(=O)NC6=O)C7=O)CC5)C4)nn3)CC2)CN1c1ccc(C#N)c(Cl)c1` (stereo partly drawn) [Cpd. No. 537, 2-chloro-4-((3S)-8-(6-(3-(4-(2-(2,6-dioxopiperidin-3-yl)-6-fluoro-1,3-dioxoisoindolin-5-yl)piperazin-1-yl)azetidine-1-carbonyl)pyridazin-3-yl)-3-methyl-2,8-diazaspiro[4.5]decan-2-yl)benzonitrile], the DC50 lay within 1 to 10 nM.
